Where only a bound is given, the exact number is not on record here.

In one series the target is Opiate μ (OP3, MOP) (Homo sapiens, UniProt P35372). Put plainly: Promiscuity screening panel, radiometric binding. Conditions: read-out: % inhibition at 10 µM (n=2). Here is the method:
(§1) C101248 was further profiled in a promiscuity screening panel, using radiometric binding assays, against a selection of 18 diverse targets at 10 μM (Supplementary Table 2).
(§2) Supplementary Table 2: Promiscuity screening panel data for C101248. Compound was screened at 10 µM, in duplicate, using radiometric binding assays

Series [1] relates to Calcium Channel L-Type, Benzothiazepine. Put plainly: Promiscuity screening panel, radiometric binding. Conditions: Rat. The method, then:
as §1, §2

The subject of series [2] is GABAA, Flunitrazepam, Central. The experiment in a line: Promiscuity screening panel, radiometric binding. The conditions noted are these: Rat. Here is the method: as §1, §2
For another series, the target named is Dopamine D1 (Homo sapiens, UniProt P21728). Put plainly: Promiscuity screening panel, radiometric binding. Conditions: read-out: % inhibition at 10 µM (n=2). The method, then:
as §1, §2

For another series, the target named is Adrenergic β2 (Homo sapiens, UniProt P07550). Put plainly: Promiscuity screening panel, radiometric binding. Conditions: read-out: % inhibition at 10 µM (n=2). The method, then: as §1, §2
Sequence of Adrenergic β2 (P07550 whole entry): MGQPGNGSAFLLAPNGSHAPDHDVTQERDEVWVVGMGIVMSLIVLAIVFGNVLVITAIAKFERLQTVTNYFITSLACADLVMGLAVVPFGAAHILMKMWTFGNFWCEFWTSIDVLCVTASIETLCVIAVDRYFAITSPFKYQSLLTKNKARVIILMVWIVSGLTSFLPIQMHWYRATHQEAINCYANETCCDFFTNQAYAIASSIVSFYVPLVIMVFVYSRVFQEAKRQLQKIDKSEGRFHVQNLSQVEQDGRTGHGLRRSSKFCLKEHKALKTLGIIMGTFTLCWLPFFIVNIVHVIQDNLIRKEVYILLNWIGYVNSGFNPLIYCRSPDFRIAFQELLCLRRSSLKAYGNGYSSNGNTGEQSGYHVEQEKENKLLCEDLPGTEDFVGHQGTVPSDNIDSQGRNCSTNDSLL
For series [3], the target named is Serotonin (5-Hydroxytryptamine) 5-HT2B (Homo sapiens, UniProt P41595). Put plainly: Promiscuity screening panel, radiometric binding. Conditions: read-out: % inhibition at 10 µM (n=2). The method, then:
as §1, §2

A further series addresses Calcium Channel CaV1.2 (Homo sapiens, UniProt Q13936). Put plainly: Promiscuity screening panel, radiometric binding. Conditions: read-out: % inhibition at 10 µM (n=2). Here is the method:
as §1, §2

Series [4] concerns the target Transporter, Norepinephrine (NET) (Homo sapiens, UniProt P23975). The experiment in a line: Promiscuity screening panel, radiometric binding. Conditions: read-out: % inhibition at 10 µM (n=2). The method, then:
as §1, §2

Another series addresses Androgen (Testosterone) (Homo sapiens, UniProt P10275). Put plainly: Promiscuity screening panel, radiometric binding. The conditions noted are these: read-out: % inhibition at 10 µM (n=2). Here is the method: as §1, §2
A further series has as its system Sodium Channel, Site 2. The experiment in a line: Promiscuity screening panel, radiometric binding. The conditions noted are these: Site 2, Rat. The method, then: as §1, §2
Another series relates to Phosphodiesterase PDE3. Put plainly: Promiscuity screening panel, radiometric binding. Conditions: Phosphodiesterase PDE3, Human. The method, then: as §1, §2
A further series concerns the target Cannabinoid CB1 (Homo sapiens, UniProt P21554). Put plainly: Promiscuity screening panel, radiometric binding. The conditions noted are these: read-out: % inhibition at 10 µM (n=2). Here is the method:
as §1, §2

Series [5] relates to Adrenergic α1, Non-Selective. The experiment in a line: Promiscuity screening panel, radiometric binding. The conditions noted are these: Rat. The method, then:
as §1, §2

Another series addresses Muscarinic M1 (Homo sapiens, UniProt P11229). The experiment in a line: Promiscuity screening panel, radiometric binding. The conditions noted are these: read-out: % inhibition at 10 µM (n=2). The method, then: as §1, §2
Series [6] addresses Transporter, Serotonin (5-Hydroxytryptamine) (SERT) (Homo sapiens, UniProt P31645). Put plainly: Promiscuity screening panel, radiometric binding. Conditions: read-out: % inhibition at 10 µM (n=2). Here is the method:
as §1, §2

A further series deals with Cannabinoid CB2 (Homo sapiens, UniProt P34972). The experiment in a line: Promiscuity screening panel, radiometric binding. The conditions noted are these: read-out: % inhibition at 10 µM (n=2). Here is the method:
as §1, §2

For another series, the target named is Histamine H1 (Homo sapiens, UniProt P35367). Put plainly: Promiscuity screening panel, radiometric binding. The conditions noted are these: read-out: % inhibition at 10 µM (n=2). Here is the method: as §1, §2
The next series addresses T1, THIK-1 (Homo sapiens, UniProt Q9HB14).
T1 construct: expressed in transfected cells
T1 sequence (Q9HB14 1-408): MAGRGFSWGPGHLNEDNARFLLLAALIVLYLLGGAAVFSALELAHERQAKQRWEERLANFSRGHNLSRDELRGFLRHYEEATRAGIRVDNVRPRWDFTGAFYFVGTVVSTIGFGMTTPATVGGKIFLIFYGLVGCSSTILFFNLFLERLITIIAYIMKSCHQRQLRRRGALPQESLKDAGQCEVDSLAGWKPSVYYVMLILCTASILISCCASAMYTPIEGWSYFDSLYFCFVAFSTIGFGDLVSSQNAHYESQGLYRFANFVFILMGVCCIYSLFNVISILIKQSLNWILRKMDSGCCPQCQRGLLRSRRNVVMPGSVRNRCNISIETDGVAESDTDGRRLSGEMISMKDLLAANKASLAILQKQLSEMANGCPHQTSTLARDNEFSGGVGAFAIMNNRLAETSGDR
Put plainly: Competition radioligand binding with 3H-C101505, membranes from HEK-hKCNK13 cells. Here is the method: From within the same chemotype as C101248, a structurally related compound (C101505) was tritiated for use in radioligand binding studies (specific activity 14 Ci/mmol). All radioligand binding assays were performed by Gifford Bioscience (Birmingham, UK). Cells were grown to approximately 90% confluence, washed twice with PBS and once with PBS with sucrose (10%) solution that was removed before the flasks were stored at −80 °C. Upon thawing, ice-cold lysis buffer (50 mM Tris-HCl; 5 mM MgCl2; 5 mM EDTA; protease inhibitor cocktail) was added to the flasks for 5 min (4 °C) and the cell layer scraped into collection tubes. The lysate was centrifuged at 13,000 g for 10 min (4 °C) to pellet the membranes. […] A sample of the homogenate was analysed for protein content using a BCA protein assay kit. […] Filters were then dried under a warm air stream, sealed in polyethylene, scintillation cocktail added, and the radioactivity counted in a MicroBeta TriLux counter (Wallac). […] The in vitro binding affinity (Ki) of C101248 was calculated from the experimental IC50 value using the Cheng-Prusoff equation (([Cheng and Prusoff, 1973]) Ki = IC50/(1 + ([L]/KD)), where [L] was the radioligand concentration in the displacement assay and KD was the radioligand dissociation constant determined from previous saturation binding studies.

The target in another series is ROCK-1 (h) (Homo sapiens, UniProt Q13464). The experiment in a line: Kinase selectivity. In kind it is biochemical. From the text:
(§3) Supplement mmc1.docx, table 1 | column: IC50 (μM)

A further series concerns the target p70S6K (h) (Homo sapiens, UniProt P23443). Put plainly: Kinase selectivity. The format is biochemical.
Excerpt: as §3

In a further series the target is PKA (h) (Homo sapiens, UniProt P17612). The experiment in a line: Kinase selectivity. In kind it is biochemical.
Excerpt: as §3

A further series deals with Lck (h) (Homo sapiens, UniProt P06239). The experiment in a line: Kinase selectivity. The format is biochemical.
Sequence of Lck (h) (P06239 whole entry): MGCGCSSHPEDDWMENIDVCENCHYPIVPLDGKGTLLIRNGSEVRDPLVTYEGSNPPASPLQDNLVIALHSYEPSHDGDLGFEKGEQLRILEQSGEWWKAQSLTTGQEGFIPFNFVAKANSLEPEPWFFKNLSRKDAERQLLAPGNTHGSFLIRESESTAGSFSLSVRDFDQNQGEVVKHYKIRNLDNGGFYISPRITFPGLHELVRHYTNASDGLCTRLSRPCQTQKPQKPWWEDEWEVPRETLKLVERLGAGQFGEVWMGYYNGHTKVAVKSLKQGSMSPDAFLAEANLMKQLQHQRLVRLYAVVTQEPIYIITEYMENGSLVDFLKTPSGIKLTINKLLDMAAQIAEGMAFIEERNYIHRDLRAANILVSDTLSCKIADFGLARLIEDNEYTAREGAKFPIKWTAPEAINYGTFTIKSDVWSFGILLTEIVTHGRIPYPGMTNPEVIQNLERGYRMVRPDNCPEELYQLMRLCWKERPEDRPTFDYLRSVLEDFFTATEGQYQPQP
Excerpt: as §3

Sequence of ROCK-1 (h) (Q13464 whole entry): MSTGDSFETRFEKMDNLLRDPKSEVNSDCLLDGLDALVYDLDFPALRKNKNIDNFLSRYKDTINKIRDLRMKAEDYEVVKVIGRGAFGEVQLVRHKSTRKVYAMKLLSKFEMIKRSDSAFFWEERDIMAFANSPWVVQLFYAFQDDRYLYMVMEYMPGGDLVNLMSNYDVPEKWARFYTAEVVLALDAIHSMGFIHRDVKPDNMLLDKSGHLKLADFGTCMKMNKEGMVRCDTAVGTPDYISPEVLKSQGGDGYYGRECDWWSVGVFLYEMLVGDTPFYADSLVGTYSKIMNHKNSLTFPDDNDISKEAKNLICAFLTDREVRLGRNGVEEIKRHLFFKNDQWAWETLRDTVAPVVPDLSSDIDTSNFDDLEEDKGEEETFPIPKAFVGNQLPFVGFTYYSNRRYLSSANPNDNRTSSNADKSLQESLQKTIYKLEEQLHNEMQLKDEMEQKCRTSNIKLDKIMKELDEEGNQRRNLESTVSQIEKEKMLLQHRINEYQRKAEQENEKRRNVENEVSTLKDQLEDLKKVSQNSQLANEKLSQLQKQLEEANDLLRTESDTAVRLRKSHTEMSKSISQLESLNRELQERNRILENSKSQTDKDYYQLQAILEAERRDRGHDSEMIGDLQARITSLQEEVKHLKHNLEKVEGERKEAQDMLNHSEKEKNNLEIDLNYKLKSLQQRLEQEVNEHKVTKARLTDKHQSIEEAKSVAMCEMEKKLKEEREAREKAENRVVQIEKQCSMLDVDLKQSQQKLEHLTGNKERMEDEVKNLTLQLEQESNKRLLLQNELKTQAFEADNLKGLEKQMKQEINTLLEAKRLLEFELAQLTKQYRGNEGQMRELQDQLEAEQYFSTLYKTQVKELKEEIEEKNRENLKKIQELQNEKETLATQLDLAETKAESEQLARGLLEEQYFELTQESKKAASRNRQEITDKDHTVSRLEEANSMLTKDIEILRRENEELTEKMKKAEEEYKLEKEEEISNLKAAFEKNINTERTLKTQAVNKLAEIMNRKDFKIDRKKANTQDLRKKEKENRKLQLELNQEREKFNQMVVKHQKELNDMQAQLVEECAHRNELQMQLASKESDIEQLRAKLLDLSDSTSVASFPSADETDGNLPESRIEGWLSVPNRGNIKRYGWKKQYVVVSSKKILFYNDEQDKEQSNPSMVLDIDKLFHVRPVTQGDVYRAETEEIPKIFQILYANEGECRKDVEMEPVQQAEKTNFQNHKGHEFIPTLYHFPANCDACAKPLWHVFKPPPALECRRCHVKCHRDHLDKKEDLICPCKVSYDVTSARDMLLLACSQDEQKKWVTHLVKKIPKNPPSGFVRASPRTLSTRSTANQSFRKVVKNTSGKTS
Sequence of Transporter, Serotonin (5-Hydroxytryptamine) (SERT) (P31645 whole entry): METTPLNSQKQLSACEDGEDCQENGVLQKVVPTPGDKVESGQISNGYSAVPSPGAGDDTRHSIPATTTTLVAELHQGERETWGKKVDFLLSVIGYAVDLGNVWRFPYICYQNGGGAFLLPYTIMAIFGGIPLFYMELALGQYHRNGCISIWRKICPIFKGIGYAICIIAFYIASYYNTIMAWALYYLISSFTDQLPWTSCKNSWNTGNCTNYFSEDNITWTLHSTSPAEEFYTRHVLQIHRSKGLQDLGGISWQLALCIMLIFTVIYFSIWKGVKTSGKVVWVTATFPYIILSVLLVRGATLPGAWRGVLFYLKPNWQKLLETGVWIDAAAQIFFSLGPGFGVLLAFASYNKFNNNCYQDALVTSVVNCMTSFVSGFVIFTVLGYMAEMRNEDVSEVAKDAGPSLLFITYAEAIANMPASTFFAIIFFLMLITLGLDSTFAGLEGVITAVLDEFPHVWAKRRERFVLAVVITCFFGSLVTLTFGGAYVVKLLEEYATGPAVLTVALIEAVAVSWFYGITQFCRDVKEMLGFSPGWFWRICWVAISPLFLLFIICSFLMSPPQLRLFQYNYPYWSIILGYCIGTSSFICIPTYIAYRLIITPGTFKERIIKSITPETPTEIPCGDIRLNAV
Sequence of Dopamine D1 (P21728 whole entry): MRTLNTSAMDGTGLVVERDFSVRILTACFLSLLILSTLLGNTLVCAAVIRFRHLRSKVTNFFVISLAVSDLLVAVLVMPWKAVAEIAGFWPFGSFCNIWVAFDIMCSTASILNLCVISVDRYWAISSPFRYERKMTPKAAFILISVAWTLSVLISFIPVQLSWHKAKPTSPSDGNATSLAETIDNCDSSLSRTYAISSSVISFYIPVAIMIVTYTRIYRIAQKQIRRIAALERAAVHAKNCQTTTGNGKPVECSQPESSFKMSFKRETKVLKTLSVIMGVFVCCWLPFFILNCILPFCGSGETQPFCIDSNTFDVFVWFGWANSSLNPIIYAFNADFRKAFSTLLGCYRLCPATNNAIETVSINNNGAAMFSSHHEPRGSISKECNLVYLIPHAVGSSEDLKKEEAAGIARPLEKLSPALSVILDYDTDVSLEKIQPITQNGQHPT
Sequence of p70S6K (h) (P23443 whole entry): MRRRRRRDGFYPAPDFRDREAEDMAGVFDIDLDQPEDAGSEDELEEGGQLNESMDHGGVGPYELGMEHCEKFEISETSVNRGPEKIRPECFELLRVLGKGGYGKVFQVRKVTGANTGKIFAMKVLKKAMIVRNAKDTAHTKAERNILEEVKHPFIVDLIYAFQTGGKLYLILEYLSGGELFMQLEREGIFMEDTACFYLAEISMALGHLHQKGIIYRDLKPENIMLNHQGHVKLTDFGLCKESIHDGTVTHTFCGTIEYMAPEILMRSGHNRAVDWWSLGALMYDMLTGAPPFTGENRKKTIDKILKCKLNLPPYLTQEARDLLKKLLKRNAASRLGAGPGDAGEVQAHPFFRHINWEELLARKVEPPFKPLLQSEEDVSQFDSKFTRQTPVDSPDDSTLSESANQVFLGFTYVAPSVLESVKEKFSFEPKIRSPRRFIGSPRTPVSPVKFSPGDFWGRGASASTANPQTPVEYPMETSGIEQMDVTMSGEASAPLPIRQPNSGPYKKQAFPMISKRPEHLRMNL
Sequence of Cannabinoid CB1 (P21554 whole entry): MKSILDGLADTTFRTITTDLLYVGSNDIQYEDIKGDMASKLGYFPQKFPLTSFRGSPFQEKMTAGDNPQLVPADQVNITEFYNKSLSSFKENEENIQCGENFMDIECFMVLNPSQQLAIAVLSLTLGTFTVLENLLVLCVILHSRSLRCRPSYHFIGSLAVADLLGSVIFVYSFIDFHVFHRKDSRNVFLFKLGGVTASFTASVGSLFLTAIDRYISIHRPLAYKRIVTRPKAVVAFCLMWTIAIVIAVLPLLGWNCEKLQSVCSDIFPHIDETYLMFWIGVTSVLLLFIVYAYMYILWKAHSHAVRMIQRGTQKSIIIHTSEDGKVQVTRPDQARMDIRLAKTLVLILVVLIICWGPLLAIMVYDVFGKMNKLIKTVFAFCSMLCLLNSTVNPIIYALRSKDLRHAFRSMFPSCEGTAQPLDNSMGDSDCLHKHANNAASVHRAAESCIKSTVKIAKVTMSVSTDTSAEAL
Sequence of Serotonin (5-Hydroxytryptamine) 5-HT2B (P41595 whole entry): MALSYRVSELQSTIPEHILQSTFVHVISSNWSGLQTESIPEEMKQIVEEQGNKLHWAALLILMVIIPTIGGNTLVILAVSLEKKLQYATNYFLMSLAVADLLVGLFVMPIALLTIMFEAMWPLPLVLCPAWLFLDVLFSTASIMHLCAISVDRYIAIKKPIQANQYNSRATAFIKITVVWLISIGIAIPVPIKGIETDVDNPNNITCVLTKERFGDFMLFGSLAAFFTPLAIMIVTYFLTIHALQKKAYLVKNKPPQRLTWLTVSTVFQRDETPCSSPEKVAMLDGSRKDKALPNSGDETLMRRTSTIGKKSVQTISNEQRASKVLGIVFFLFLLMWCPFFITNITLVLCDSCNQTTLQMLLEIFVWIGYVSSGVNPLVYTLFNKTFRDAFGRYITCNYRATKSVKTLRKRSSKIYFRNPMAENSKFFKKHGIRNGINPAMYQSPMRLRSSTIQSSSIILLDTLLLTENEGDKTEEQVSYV

With `Nc1nonc1-c1nc2ccccc2n1Cc1ccncc1` [C101248], the inhibition (usually the relative decrease from the control value, in per cent) at 10 µM at Opiate μ (OP3, MOP) was -9%; at Dopamine D1 it was -1%; on Adrenergic β2, 15%; in series [3] it was 24%; at Calcium Channel CaV1.2 it was 12%; in [4], 23%. Further, the inhibition at 10 µM on Androgen (Testosterone) was 6%; on Cannabinoid CB1 it was 22%; on Muscarinic M1 it was -3%; in series [6], -7%; at Cannabinoid CB2, 0%; on Histamine H1, 21%. The % inhibition (in general, the relative decrease from the control value, in per cent) at 10 µM (n=2) in [1] is on record as 3%; in series [2], -9%; with Sodium Channel, Site 2 it was 2%; in the series on Phosphodiesterase PDE3, 1%; in [5], 12%. The affinity at THIK-1 (Cheng-Prusoff from IC50, radioligand 3H-C101505) corresponds to a Ki of 0.057 µM. Also, the IC50 (commonly the midpoint of a concentration-inhibition curve) on THIK-1 (radioligand 3H-C101505, HEK-hKCNK13 membranes, read-out: IC50, displacement of radioligand) was 0.077 µM; at ROCK-1 (h), over 10 µM; on p70S6K (h), over 10 µM; at PKA (h), over 10 µM; against Lck (h) it was over 10 µM.

The values above are taken from paper PMC9841576, “Characterisation of C101248: A novel selective THIK-1 channel inhibitor for the modulation of microglial NLRP3-inflammasome” (Neuropharmacology, 2023).
